Tested on: not listed separately
Assay: Cytotoxicity against human UO31 cells assessed as growth level at 10 uM after 48 hrs by SRB assay
Assay type: functional, UO-31
Details: not given

Compound	Activity [%]
C=C1CC[C@@H]2[C@](C)(COC(C)=O)[C@H](OC(C)=O)CC[C@@]2(C)[C@@H]1CC(NCCCCCCCC)C1=CCOC1=O (mixture of isomers)	56.13

Tested on: not listed separately
Assay: Cytotoxicity against human SF295 cells assessed as growth inhibition at 10 uM after 48 hrs by SRB assay
Assay type: functional
Details: SF-295, 48 h, read-out: GI

Compound	inhibition of growth at 10 µM [%]
C=C1CC[C@@H]2[C@](C)(COC(C)=O)[C@H](OC(C)=O)CC[C@@]2(C)[C@@H]1CC(NCCCCCCCC)C1=CCOC1=O (mixture of isomers)	19

Tested on: not listed separately
Assay: Cytotoxicity against human HOP92 cells assessed as growth level at 10 uM after 48 hrs by SRB assay
Assay type: functional, HOP-92
Details: not given

Compound	Activity [%]
C=C1CC[C@@H]2[C@](C)(COC(C)=O)[C@H](OC(C)=O)CC[C@@]2(C)[C@@H]1CC(NCCCCCCCC)C1=CCOC1=O (mixture of isomers)	44.59

Tested on: NCI-H226
Assay: Cytotoxicity against human NCI-H226 cells assessed as growth level at 10 uM after 48 hrs by SRB assay
Assay type: functional
Details: not given

Compound	Activity [%]
C=C1CC[C@@H]2[C@](C)(COC(C)=O)[C@H](OC(C)=O)CC[C@@]2(C)[C@@H]1CC(NCCCCCCCC)C1=CCOC1=O (mixture of isomers)	65.82

Tested on: SK-MEL-28
Assay: Cytotoxicity against human SK-MEL-28 cells assessed as growth level at 10 uM after 48 hrs by SRB assay
Assay type: functional
Details: not given

Compound	Activity [%]
C=C1CC[C@@H]2[C@](C)(COC(C)=O)[C@H](OC(C)=O)CC[C@@]2(C)[C@@H]1CC(NCCCCCCCC)C1=CCOC1=O (mixture of isomers)	85.58

Tested on: not listed separately
Assay: Cytotoxicity against human UO31 cells assessed as growth inhibition at 10 uM after 48 hrs by SRB assay
Assay type: functional
Details: UO-31, 48 h, read-out: GI

Compound	inhibition of growth at 10 µM [%]
C=C1CC[C@@H]2[C@](C)(COC(C)=O)[C@H](OC(C)=O)CC[C@@]2(C)[C@@H]1CC(NCCCCCCCC)C1=CCOC1=O (mixture of isomers)	43.9

Tested on: not listed separately
Assay: Cytotoxicity against human SNB19 cells assessed as growth level at 10 uM after 48 hrs by SRB assay
Assay type: functional, SNB-19
Details: not given

Compound	Activity [%]
C=C1CC[C@@H]2[C@](C)(COC(C)=O)[C@H](OC(C)=O)CC[C@@]2(C)[C@@H]1CC(NCCCCCCCC)C1=CCOC1=O (mixture of isomers)	78.29

Tested on: not listed separately
Assay: Cytotoxicity against human UACC62 cells assessed as growth inhibition at 10 uM after 48 hrs by SRB assay
Assay type: functional
Details: UACC-62, 48 h, read-out: GI

Compound	inhibition of growth at 10 µM [%]
C=C1CC[C@@H]2[C@](C)(COC(C)=O)[C@H](OC(C)=O)CC[C@@]2(C)[C@@H]1CC(NCCCCCCCC)C1=CCOC1=O (mixture of isomers)	52.3

Tested on: CCRF-CEM
Assay: Cytotoxicity against human CCRF-CEM cells assessed as growth inhibition at 10 uM after 48 hrs by SRB assay
Assay type: functional
Details: read-out: GI

Compound	inhibition of growth at 10 µM [%]
C=C1CC[C@@H]2[C@](C)(COC(C)=O)[C@H](OC(C)=O)CC[C@@]2(C)[C@@H]1CC(NCCCCCCCC)C1=CCOC1=O (mixture of isomers)	52.7

Tested on: HT-29
Assay: Cytotoxicity against human HT-29 cells assessed as growth inhibition at 10 uM after 48 hrs by SRB assay
Assay type: functional
Details: HT-29, 48 h, read-out: GI

Compound	inhibition of growth at 10 µM [%]
C=C1CC[C@@H]2[C@](C)(COC(C)=O)[C@H](OC(C)=O)CC[C@@]2(C)[C@@H]1CC(NCCCCCCCC)C1=CCOC1=O (mixture of isomers)	29.5

Tested on: not listed separately
Assay: Cytotoxicity against human PC3 cells assessed as growth inhibition at 10 uM after 48 hrs by SRB assay
Assay type: functional
Details: PC-3, 48 h, read-out: GI

Compound	inhibition of growth at 10 µM [%]
C=C1CC[C@@H]2[C@](C)(COC(C)=O)[C@H](OC(C)=O)CC[C@@]2(C)[C@@H]1CC(NCCCCCCCC)C1=CCOC1=O (mixture of isomers)	66.4

Tested on: ACHN
Assay: Cytotoxicity against human ACHN cells assessed as growth inhibition at 10 uM after 48 hrs by SRB assay
Assay type: functional
Details: read-out: GI

Compound	inhibition of growth at 10 µM [%]
C=C1CC[C@@H]2[C@](C)(COC(C)=O)[C@H](OC(C)=O)CC[C@@]2(C)[C@@H]1CC(NCCCCCCCC)C1=CCOC1=O (mixture of isomers)	14

Tested on: not listed separately
Assay: Cytotoxicity against human UACC62 cells assessed as growth level at 10 uM after 48 hrs by SRB assay
Assay type: functional, UACC-62
Details: not given

Compound	Activity [%]
C=C1CC[C@@H]2[C@](C)(COC(C)=O)[C@H](OC(C)=O)CC[C@@]2(C)[C@@H]1CC(NCCCCCCCC)C1=CCOC1=O (mixture of isomers)	47.66

Tested on: not listed separately
Assay: Cytotoxicity against human COLO205 cells assessed as growth level at 10 uM after 48 hrs by SRB assay
Assay type: functional, COLO 205
Details: not given

Compound	Activity [%]
C=C1CC[C@@H]2[C@](C)(COC(C)=O)[C@H](OC(C)=O)CC[C@@]2(C)[C@@H]1CC(NCCCCCCCC)C1=CCOC1=O (mixture of isomers)	70.75

Tested on: not listed separately
Assay: Cytotoxicity against human NCI-ADR-RES cells assessed as growth inhibition at 10 uM after 48 hrs by SRB assay
Assay type: functional
Details: read-out: GI

Compound	inhibition of growth at 10 µM [%]
C=C1CC[C@@H]2[C@](C)(COC(C)=O)[C@H](OC(C)=O)CC[C@@]2(C)[C@@H]1CC(NCCCCCCCC)C1=CCOC1=O (mixture of isomers)	12.3

Tested on: M14
Assay: Cytotoxicity against human M14 cells assessed as growth inhibition at 10 uM after 48 hrs by SRB assay
Assay type: functional
Details: M14, 48 h, read-out: GI

Compound	inhibition of growth at 10 µM [%]
C=C1CC[C@@H]2[C@](C)(COC(C)=O)[C@H](OC(C)=O)CC[C@@]2(C)[C@@H]1CC(NCCCCCCCC)C1=CCOC1=O (mixture of isomers)	24.1

Tested on: MCF7
Assay: Cytotoxicity against human MCF7 cells assessed as growth level at 10 uM after 48 hrs by SRB assay
Assay type: functional
Details: not given

Compound	Activity [%]
C=C1CC[C@@H]2[C@](C)(COC(C)=O)[C@H](OC(C)=O)CC[C@@]2(C)[C@@H]1CC(NCCCCCCCC)C1=CCOC1=O (mixture of isomers)	68.8

Tested on: A498
Assay: Cytotoxicity against human A498 cells assessed as growth inhibition at 10 uM after 48 hrs by SRB assay
Assay type: functional
Details: A498, 48 h, read-out: GI

Compound	inhibition of growth at 10 µM [%]
C=C1CC[C@@H]2[C@](C)(COC(C)=O)[C@H](OC(C)=O)CC[C@@]2(C)[C@@H]1CC(NCCCCCCCC)C1=CCOC1=O (mixture of isomers)	35.7

Tested on: M14
Assay: Cytotoxicity against human M14 cells assessed as growth level at 10 uM after 48 hrs by SRB assay
Assay type: functional
Details: not given

Compound	Activity [%]
C=C1CC[C@@H]2[C@](C)(COC(C)=O)[C@H](OC(C)=O)CC[C@@]2(C)[C@@H]1CC(NCCCCCCCC)C1=CCOC1=O (mixture of isomers)	75.91

Tested on: SN12C
Assay: Cytotoxicity against human SN12C cells assessed as growth inhibition at 10 uM after 48 hrs by SRB assay
Assay type: functional
Details: read-out: GI

Compound	inhibition of growth at 10 µM [%]
C=C1CC[C@@H]2[C@](C)(COC(C)=O)[C@H](OC(C)=O)CC[C@@]2(C)[C@@H]1CC(NCCCCCCCC)C1=CCOC1=O (mixture of isomers)	26.9

Tested on: not listed separately
Assay: Cytotoxicity against human SF268 cells assessed as growth inhibition at 10 uM after 48 hrs by SRB assay
Assay type: functional
Details: SF-268, 48 h, read-out: GI

Compound	inhibition of growth at 10 µM [%]
C=C1CC[C@@H]2[C@](C)(COC(C)=O)[C@H](OC(C)=O)CC[C@@]2(C)[C@@H]1CC(NCCCCCCCC)C1=CCOC1=O (mixture of isomers)	32.2

Tested on: not listed separately
Assay: Cytotoxicity against human BT549 cells assessed as growth level at 10 uM after 48 hrs by SRB assay
Assay type: functional, BT-549
Details: not given

Compound	Activity [%]
C=C1CC[C@@H]2[C@](C)(COC(C)=O)[C@H](OC(C)=O)CC[C@@]2(C)[C@@H]1CC(NCCCCCCCC)C1=CCOC1=O (mixture of isomers)	69.6

Tested on: not listed separately
Assay: Cytotoxicity against human OVCAR4 cells assessed as growth inhibition at 10 uM after 48 hrs by SRB assay
Assay type: functional
Details: OVCAR-4, 48 h, read-out: GI

Compound	inhibition of growth at 10 µM [%]
C=C1CC[C@@H]2[C@](C)(COC(C)=O)[C@H](OC(C)=O)CC[C@@]2(C)[C@@H]1CC(NCCCCCCCC)C1=CCOC1=O (mixture of isomers)	47.7

Tested on: NCI-H322M
Assay: Cytotoxicity against human NCI-H322M cells assessed as growth level at 10 uM after 48 hrs by SRB assay
Assay type: functional
Details: not given

Compound	Activity [%]
C=C1CC[C@@H]2[C@](C)(COC(C)=O)[C@H](OC(C)=O)CC[C@@]2(C)[C@@H]1CC(NCCCCCCCC)C1=CCOC1=O (mixture of isomers)	98.01

Tested on: not listed separately
Assay: Cytotoxicity against human TK10 cells assessed as growth inhibition at 10 uM after 48 hrs by SRB assay
Assay type: functional
Details: TK-10, 48 h, read-out: GI

Compound	inhibition of growth at 10 µM [%]
C=C1CC[C@@H]2[C@](C)(COC(C)=O)[C@H](OC(C)=O)CC[C@@]2(C)[C@@H]1CC(NCCCCCCCC)C1=CCOC1=O (mixture of isomers)	17.3

Tested on: A549
Assay: Cytotoxicity against human A549 cells assessed as growth inhibition at 10 uM after 48 hrs by SRB assay
Assay type: functional
Details: A549, 48 h, read-out: GI

Compound	inhibition of growth at 10 µM [%]
C=C1CC[C@@H]2[C@](C)(COC(C)=O)[C@H](OC(C)=O)CC[C@@]2(C)[C@@H]1CC(NCCCCCCCC)C1=CCOC1=O (mixture of isomers)	32.8

Tested on: not listed separately
Assay: Cytotoxicity against human RPMI8226 cells assessed as growth inhibition at 10 uM after 48 hrs by SRB assay
Assay type: functional
Details: RPMI-8226, 48 h, read-out: GI

Compound	inhibition of growth at 10 µM [%]
C=C1CC[C@@H]2[C@](C)(COC(C)=O)[C@H](OC(C)=O)CC[C@@]2(C)[C@@H]1CC(NCCCCCCCC)C1=CCOC1=O (mixture of isomers)	64

Tested on: NCI-H322M
Assay: Cytotoxicity against human NCI-H322M cells assessed as growth inhibition at 10 uM after 48 hrs by SRB assay
Assay type: functional
Details: read-out: GI

Compound	inhibition of growth at 10 µM [%]
C=C1CC[C@@H]2[C@](C)(COC(C)=O)[C@H](OC(C)=O)CC[C@@]2(C)[C@@H]1CC(NCCCCCCCC)C1=CCOC1=O (mixture of isomers)	1.99

Source: ChEMBL document CHEMBL3734705, “Synthesis and in vitro cytotoxicity of novel C-12 substituted-14-deoxy-andrographolide derivatives as potent anti-cancer agents” (2015)
